Source: patent publication US20130172320A1, “PYRIDO [4,3-B] INDOLE AND PYRIDO [3,4-B] INDOLE DERIVATIVES AND METHODS OF USE” (priority 2010, published 2013)

Legend:
[1] = target: T1, human recombinant serotonin (5-Hydroxytryptamine) 5-HT2A receptor (Homo sapiens, UniProt P28223); assay: Serotonin 5-HT2A radioligand binding ([3H]Ketanserin); details: compound at 0.1 μM; read-out: Percentage inhibition of ligand binding, Serotonin (0.1 μM) 5-HT2A
T1 construct: expressed in transfected cells; host or cells: Chinese hamster ovary (CHO) K1 cells
T1 sequence (P28223 whole entry): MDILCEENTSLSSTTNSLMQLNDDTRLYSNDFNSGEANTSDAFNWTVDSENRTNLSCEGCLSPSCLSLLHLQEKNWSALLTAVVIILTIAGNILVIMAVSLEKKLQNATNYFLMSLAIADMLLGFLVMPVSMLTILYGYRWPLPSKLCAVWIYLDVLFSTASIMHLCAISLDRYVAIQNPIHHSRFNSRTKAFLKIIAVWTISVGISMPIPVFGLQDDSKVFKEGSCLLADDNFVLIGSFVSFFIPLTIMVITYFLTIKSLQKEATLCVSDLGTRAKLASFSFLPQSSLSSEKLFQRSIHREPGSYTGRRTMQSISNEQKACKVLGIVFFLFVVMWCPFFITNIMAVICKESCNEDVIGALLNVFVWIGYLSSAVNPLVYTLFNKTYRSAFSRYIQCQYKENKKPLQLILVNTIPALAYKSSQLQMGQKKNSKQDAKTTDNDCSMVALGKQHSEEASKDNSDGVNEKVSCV
Protocol: To evaluate in radioligand binding assays the activity of compounds of the invention, human recombinant serotonin (5-Hydroxytryptamine) 5-HT2A receptor expressed in Chinese hamster ovary (CHO) K1 cells (Bonhaus, D. et al, Br. J. Pharmacol. 115:622, 1995; Saucier, C. et al, J. Neurochem. 68:1998, 1997) in a 50 mM Tris-HCl buffer, pH 7.4, was used. Compounds of the invention were incubated with 0.5 nM [^3H]Ketanserin for 60 min at 25° C. Non-specific binding was estimated in the presence of 1 μM Mianserin. Receptor proteins were filtered and washed, the filters were then counted to determine [^3H]Ketanserin specifically bound. Compounds were screened at 1 μM or lower, using 1% DMSO as vehicle. Biochemical assay results are presented as the percent inhibition of specific binding in Table 4.

[2] = target: T2, human recombinant serotonin (5-Hydroxytryptamine) 5-HT2C receptor (Homo sapiens, UniProt P28335); assay: Serotonin 5-HT2C radioligand binding ([3H]Mesulergine); details: compound at 0.1 μM; read-out: Percentage inhibition of ligand binding, Serotonin (0.1 μM) 5-HT2C
T2 construct: expressed in transfected cells; host or cells: Chinese hamster ovary (CHO) K1 cells
T2 sequence (P28335 33-458): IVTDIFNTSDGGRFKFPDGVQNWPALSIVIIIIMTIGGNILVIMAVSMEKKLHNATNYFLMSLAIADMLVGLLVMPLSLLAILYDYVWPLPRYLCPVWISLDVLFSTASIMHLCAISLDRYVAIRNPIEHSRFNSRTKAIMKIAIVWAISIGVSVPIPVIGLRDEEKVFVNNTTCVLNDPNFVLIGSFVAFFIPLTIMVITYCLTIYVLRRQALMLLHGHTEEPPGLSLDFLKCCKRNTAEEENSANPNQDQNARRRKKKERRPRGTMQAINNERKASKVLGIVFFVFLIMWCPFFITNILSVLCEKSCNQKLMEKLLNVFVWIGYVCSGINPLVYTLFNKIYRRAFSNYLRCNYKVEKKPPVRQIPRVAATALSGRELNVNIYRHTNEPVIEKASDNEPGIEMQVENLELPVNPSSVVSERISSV
Protocol: To evaluate in radioligand binding assays the activity of compounds of the invention, human recombinant serotonin (5-Hydroxytryptamine) 5-HT2C receptor expressed in Chinese hamster ovary (CHO) K1 cells (Wolf, W. et al, J. Neurochem. 69:1449, 1997) in a modified Tris-HCl buffer (50 mM Tris-HCl, pH 7.4, 0.1% Ascorbic Acid, 10 μM Pargyline) was used. Compounds of the invention were incubated with 1 nM [^3H]Mesulergine for 60 min at 25° C. Non-specific binding was estimated in the presence of 1 μM Mianserin. Receptor proteins were filtered and washed, the filters were then counted to determine [^3H]Mesulergine specifically bound. Compounds were screened at 1 μM or lower, using 1% DMSO as vehicle. Biochemical assay results are presented as the percent inhibition of specific binding in Table 4.

[3] = target: human recombinant histamine H1 receptor (Homo sapiens, UniProt P35367); assay: Histamine H1 radioligand binding ([3H]Pyrilamine); details: compound at 1 μM; 1.2 nM [3H]Pyrilamine; read-out: Binding data (Percentage inhibition) Histamine H1 (1 μM)
human recombinant histamine H1 receptor, sequence (P35367 whole entry): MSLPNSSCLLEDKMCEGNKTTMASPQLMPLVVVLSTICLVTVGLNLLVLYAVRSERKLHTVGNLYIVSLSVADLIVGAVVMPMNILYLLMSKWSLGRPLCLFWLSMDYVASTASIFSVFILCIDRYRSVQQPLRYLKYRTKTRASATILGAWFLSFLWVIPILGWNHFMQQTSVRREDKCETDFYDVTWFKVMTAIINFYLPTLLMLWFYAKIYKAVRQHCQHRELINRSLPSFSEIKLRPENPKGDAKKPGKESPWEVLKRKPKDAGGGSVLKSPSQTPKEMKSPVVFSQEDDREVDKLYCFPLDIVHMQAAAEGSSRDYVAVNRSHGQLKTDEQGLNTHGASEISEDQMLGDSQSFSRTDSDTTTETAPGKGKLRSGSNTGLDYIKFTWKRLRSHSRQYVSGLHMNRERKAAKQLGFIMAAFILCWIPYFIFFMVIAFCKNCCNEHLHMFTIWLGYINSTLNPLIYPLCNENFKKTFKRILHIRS
Protocol: To evaluate in radioligand binding assays the activity of compounds of the invention, human recombinant histamine H1 receptor expressed in Chinese hamster ovary (CHO) cells (De Backer, M. et al, Biochem. Biophys. Res. Comm. 197(3):1601, 1993) in a modified Tris-HCl buffer (50 mM Tris-HCl, pH 7.4, 2 mM MgCl2, 100 mM NaCl, 250 mM Sucrose) was used. Compounds of the invention were incubated with 1.2 nM [^3H]Pyrilamine for 180 min at 25° C. Non-specific binding was estimated in the presence of 1 μM Pyrilamine. Receptor proteins were filtered and washed, the filters were then counted to determine [^3H]Pyrilamine specifically bound. Compounds were screened at 1 μM or lower, using 1% DMSO as vehicle. Biochemical assay results are presented as the percent inhibition of specific binding in Table 2.

[4] = target: human recombinant dopamine D2L receptor (Homo sapiens, UniProt P14416); assay: Dopamine D2L radioligand binding ([3H]Spiperone); details: compound at 1 μM; read-out: Percentage inhibition of ligand binding, Dopamine (1 μM) D2L
human recombinant dopamine D2L receptor, sequence (P14416 whole entry): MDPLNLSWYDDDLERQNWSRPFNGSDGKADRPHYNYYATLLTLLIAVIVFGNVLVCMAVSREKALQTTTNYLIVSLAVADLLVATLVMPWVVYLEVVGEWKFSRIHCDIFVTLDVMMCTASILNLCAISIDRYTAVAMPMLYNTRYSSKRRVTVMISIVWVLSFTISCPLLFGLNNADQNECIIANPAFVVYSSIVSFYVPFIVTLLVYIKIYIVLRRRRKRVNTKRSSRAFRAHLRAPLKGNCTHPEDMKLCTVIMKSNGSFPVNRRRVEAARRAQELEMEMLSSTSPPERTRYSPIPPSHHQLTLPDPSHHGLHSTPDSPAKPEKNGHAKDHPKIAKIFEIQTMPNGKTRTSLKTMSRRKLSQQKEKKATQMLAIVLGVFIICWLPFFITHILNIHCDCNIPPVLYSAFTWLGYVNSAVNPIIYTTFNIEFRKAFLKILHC
Protocol: To evaluate in radioligand binding assays the activity of compounds of the invention, human recombinant dopamine D2L receptor expressed in Chinese hamster ovary (CHO) cells (Grandy, D. et al, Proc. Natl. Acad. Sci. USA. 86:9762, 1989; Hayes, G. et al, Mol. Endocrinol. 6:920, 1992) in a modified Tris-HCl buffer (50 mM Tris-HCl, pH 7.4, 1.4 mM Ascorbic Acid, 0.001% BSA, 150 mM NaCl) was used. Compounds of the invention were incubated with 0.16 nM [^3H]Spiperone for 120 min at 25° C. Non-specific binding was estimated in the presence of 10 μM Haloperidol. Receptor proteins were filtered and washed, the filters were then counted to determine [^3H]Spiperone specifically bound. Compounds were screened at 1 μM or lower, using 1% DMSO as vehicle. Biochemical assay results are presented as the percent inhibition of specific binding in Table 3.

[5] = target: T3, human recombinant serotonin (5-Hydroxytryptamine) 5-HT6 receptor (Homo sapiens, UniProt P50406); assay: Serotonin 5-HT6 radioligand binding ([3H]LSD); details: compound at 0.1 μM; read-out: Percentage inhibition of ligand binding, Serotonin (0.1 μM) 5-HT6
T3 construct: expressed in transfected cells; host or cells: human HeLa cells
T3 sequence (P50406 whole entry): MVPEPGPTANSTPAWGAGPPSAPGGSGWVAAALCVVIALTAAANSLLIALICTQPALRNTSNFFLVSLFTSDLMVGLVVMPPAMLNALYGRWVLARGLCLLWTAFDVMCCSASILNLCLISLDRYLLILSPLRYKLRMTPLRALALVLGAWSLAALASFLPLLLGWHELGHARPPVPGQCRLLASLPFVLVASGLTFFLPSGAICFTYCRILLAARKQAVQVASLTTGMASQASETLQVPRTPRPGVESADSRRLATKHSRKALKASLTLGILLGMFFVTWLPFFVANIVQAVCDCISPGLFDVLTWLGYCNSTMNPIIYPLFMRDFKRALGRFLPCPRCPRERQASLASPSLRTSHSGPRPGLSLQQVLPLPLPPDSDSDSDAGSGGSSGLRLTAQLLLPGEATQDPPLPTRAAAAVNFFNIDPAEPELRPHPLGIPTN
Protocol: To evaluate in radioligand binding assays the activity of compounds of the invention, human recombinant serotonin (5-Hydroxytryptamine) 5-HT6 receptor expressed in human HeLa cells (Monsma, F. Jr. et al, Mol. Pharmacol. 43:320, 1993) in a modified Tris-HCl buffer (50 mM Tris-HCl, pH 7.4, 150 mM NaCl, 2 mM Ascorbic Acid, 0.001% BSA) was used. Compounds of the invention were incubated with 1.5 nM [3H]Lysergic acid diethylamide (LSD) for 120 min at 37° C. Non-specific binding was estimated in the presence of 5 μM Serotonin (5-HT). Receptor proteins were filtered and washed, the filters were then counted to determine [3H]LSD specifically bound. Compounds were screened at 1 μM or lower, using 1% DMSO as vehicle. Biochemical assay results are presented as the percent inhibition of specific binding in Table 4.

[6] = target: human recombinant serotonin (5-Hydroxytryptamine) 5-HT7 receptor (Homo sapiens, UniProt P34969); assay: Serotonin 5-HT7 radioligand binding ([3H]LSD); details: compound at 0.1 μM; read-out: Percentage inhibition of ligand binding, Serotonin (0.1 μM) 5-HT7
human recombinant serotonin (5-Hydroxytryptamine) 5-HT7 receptor, sequence (P34969 whole entry): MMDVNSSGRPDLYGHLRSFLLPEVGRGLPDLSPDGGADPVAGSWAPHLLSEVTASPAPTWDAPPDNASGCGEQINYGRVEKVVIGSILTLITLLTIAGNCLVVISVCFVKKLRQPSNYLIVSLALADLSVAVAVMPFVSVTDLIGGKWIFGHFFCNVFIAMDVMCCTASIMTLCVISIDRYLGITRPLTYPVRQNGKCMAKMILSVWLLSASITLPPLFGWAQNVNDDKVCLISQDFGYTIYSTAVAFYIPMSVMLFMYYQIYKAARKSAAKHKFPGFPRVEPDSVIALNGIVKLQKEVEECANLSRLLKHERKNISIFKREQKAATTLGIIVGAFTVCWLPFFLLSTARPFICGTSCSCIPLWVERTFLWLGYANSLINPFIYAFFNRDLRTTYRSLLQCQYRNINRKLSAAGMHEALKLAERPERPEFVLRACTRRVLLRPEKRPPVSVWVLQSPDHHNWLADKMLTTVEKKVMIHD
Protocol: To evaluate in radioligand binding assays the activity of compounds of the invention, human recombinant serotonin (5-Hydroxytryptamine) 5-HT7 receptor expressed in Chinese hamster ovary (CHO) cells (Roth, B. et al, J. Pharmacol. Exp. Ther. 268:1403, 1994; Shen, Y. et al, J. Biol. Chem. 268:18200, 1993) in a modified Tris-HCl buffer (50 mM Tris-HCl, pH 7.4, 10 mM MgCl2, 0.5 mM EDTA) was used. Compounds of invention were incubated with 5.5 nM [^3H] Lysergic acid diethylamide (LSD) for 2 h at 25° C. Non-specific binding was estimated in the presence of 10 μM Serotonin (5-HT). Receptor proteins were filtered and washed, the filters were then counted to determine [^3H]LSD specifically bound. Compounds were screened at 1 μM or lower, using 1% DMSO as vehicle. Biochemical assay results are presented as the percent inhibition of specific binding in Table 4.

| Compound | inhibition at 0.1 µM [1] | inhibition at 0.1 µM [2] | inhibition at 1 µM [3] | inhibition at 1 µM [4] | inhibition at 0.1 µM [5] | inhibition at 0.1 µM [6] |
| --- | --- | --- | --- | --- | --- | --- |
| Cc1ccc2[nH]c3c(c2c1)CN(C)CC3(C)CCc1ccccc1 (stereo not drawn) [Compound 43] | 15% | -4% | 93% | 23% | 9% | -23% |
| Cc1ccc2c(c1)c1c(n2C)C(C)(CCc2ccccc2)CN(C)C1 (stereo not drawn) [Compound 44] | 4% | 12% | 101% | 33% | 17% | 29% |
| Cc1ccc2c(c1)c1c(n2C)C(C)(CCc2ccc(C)nc2)CN(C)C1 (stereo not drawn) [Compound 45] | 1% | 6% | 99% | 5% | -4% | -6% |
| Cc1ccc2[nH]c3c(c2c1)CN(C)CC3(C)CCc1ccc(C)nc1 (stereo not drawn) [Compound 46, 2,4,8-Trimethyl-4-[2-(6-methyl-pyridin-3-yl)-ethyl]-2,3,4,5-tetrahydro-1H-pyrido[4,3-b]indole] | 7% | 8% | 34% | 3% | 6% | -10% |
